# Assay results taken from US4711952A, “Serum thymic factor peptide analogs and process for the preparation thereof” (SPOFA, spojene podniky pro zdravotnickouvyrobu, priority 1984, dated 1987).
# Non-standard residues stand in square brackets, D forms with d. Residues, ends and D or L forms follow the SMILES beside them. No end group written: not given here. pGlu = O=C1CC[C@@H](C(=O)O)N1
# System: Flymphocytes
# Experiment: Recovery assay of Flymphocytes (in vitro)
# Type: cell-based
# Conditions: positive for immunostimulation and negative for immunosuppression
# Source text: As is evident from the general formula I in comparison with the above structure of the natural substance, the compounds of the present invention, besides optional shortening at the N-terminus, comprise a C-terminal augmentation predominantly by an additional amino-acid residue or residues bearing an amide moiety.
row,Molecule,Recovery Assay of Flymbocytes differential count [%]
1,C[C@H](NC(=O)[C@@H]1CCC(=O)N1)C(=O)N[C@@H](CCCCN)C(=O)N[C@@H](CO)C(=O)N[C@@H](CCC(N)=O)C(=O)NCC(=O)NCC(=O)N[C@@H](CO)C(=O)N[C@@H](CC(N)=O)C(=O)NCC(N)=O ([pGlu]AKSQGGSNG-NH2),6.31
2,"C[C@H](NC(=O)[C@@H]1CCC(=O)N1)C(=O)N[C@@H](CCCCN)C(=O)N[C@@H](CO)C(=O)N[C@@H](CCC(N)=O)C(=O)NCC(=O)NCC(=O)N[C@@H](CO)C(=O)N[C@@H](CC(N)=O)C(=O)N[C@@H](Cc1ccccc1)C(N)=O [p-Glu--D-Gln--E--PheNH2, Pyroglutamyl-alanyl-lysyl-seryl-glutaminyl-glycyl-glycyl-seryl-asparaginyl-phenylalanine amide] ([pGlu]AKSQGGSNF-NH2)",7.54
3,"NC(=O)CNC(=O)[C@H](CC(N)=O)NC(=O)[C@H](CO)NC(=O)CNC(=O)CNC(=O)[C@@H]1CCC(=O)N1 [p-Glu--E--GlyNH2, Pyroglutamyl-glycyl-glycyl-seryl-asparaginyl-glycine amide] ([pGlu]GGSNG-NH2)",6.35
4,"NC(=O)C[C@H](NC(=O)[C@H](CO)NC(=O)CNC(=O)CNC(=O)[C@@H]1CCC(=O)N1)C(=O)N[C@@H](Cc1ccccc1)C(N)=O [p-Glu--E--PheNH2, Pyroglutamyl-glycyl-glycyl-seryl-asparaginyl-phenylalanine amide] ([pGlu]GGSNF-NH2)",2.89
5,"AKSQGGSNF-NH2 [D-Gln--E--PheNH2, Alanyl-lysyl-seryl-glutaminyl-glycyl-glycyl-seryl-asparaginyl-phenylalanine amide]",16.09
6,"AKSQGGSNG-NH2 [D-Gln--E--GlyNH2, Alanyl-lysyl-seryl-glutaminyl-glycyl-glycyl-seryl-asparaginyl-glycine amide]",12.75
